What follows are cell lines tested with CN1CCN(CC1)C2=CC(=C(C=C2)NC3=NC=C4C(=N3)N(C5=CC=CC=C5C(=O)N4C)C)OC [XMD8-85] (assay: relative viability (nuclei count vs DMSO), 5 days (fraction); higher = more cells survive). Settings: 0.08 µM.
Method in brief: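 Lung cancer cell lines in 1536-well plates were kept overnight at 37 °C, then pinned with five library-drug doses (not always all listed) spaced by √10 on vehicle-anchored plates. After 5 days without medium change, cells were fixed, permeabilised and Hoechst-stained in one step, imaged at 4×, and nuclei were counted with MetaXpress. Viability is treated-well nuclei divided by vehicle-well nuclei, taken as the median over plates. Plates passed only with control CV below 25% and at least one doubling.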

Row | Cell Line | relative viability
1 | 201T | 1
2 | A549 | 0.954
3 | A-427 | 1.04
4 | ABC-1 | 0.879
5 | BEN | 1.03
6 | CAL-12T | 0.936
7 | COR-L23 | 1.11
8 | COR-L 105 | 0.913
9 | Calu-6 | 1.02
10 | ChaGo-K-1 | 0.953
11 | EBC-1 | 0.944
12 | EKVX | 0.966
13 | EMC-BAC-2 | 1.04
14 | EPLC-272H | 0.937
15 | H3255 | 1.1
16 | HARA | 0.95
17 | HCC-15 | 1.01
18 | HCC-44 | 1.02

Row | Cell Line | relative viability
19 | HCC-78 | 1.14
20 | HCC-366 | 1.03
21 | HCC-827 | 1.03
22 | HOP-62 | 1.08
23 | IA-LM | 0.84
24 | LC-2-ad | 1.02
25 | LCLC-97TM1 | 0.915
26 | LCLC-103H | 0.929
27 | LK-2 | 0.97
28 | LOU-NH91 | 0.993
29 | LU99A | 0.895
30 | NCI-H441 | 1.09
31 | NCI-H522 | 0.94
32 | NCI-H1623 | 0.906
33 | NCI-H1648 | 0.827
34 | NCI-H2342 | 0.873
35 | SW 900 | 0.791

Same assay, conditions: 0.253 µM

Row | Cell Line | relative viability
36 | 201T | 0.983
37 | A549 | 1
38 | A-427 | 1
39 | ABC-1 | 0.87
40 | BEN | 0.956
41 | CAL-12T | 1.06
42 | COR-L23 | 1.07
43 | COR-L 105 | 0.861
44 | Calu-6 | 0.962
45 | ChaGo-K-1 | 0.969
46 | EBC-1 | 1.06
47 | EKVX | 1.05
48 | EMC-BAC-2 | 1.03
49 | EPLC-272H | 1.07
50 | H3255 | 0.929
51 | HARA | 0.976
52 | HCC-15 | 1.02
53 | HCC-44 | 0.948

Row | Cell Line | relative viability
54 | HCC-78 | 1.02
55 | HCC-366 | 1.03
56 | HCC-827 | 1.04
57 | HOP-62 | 1.06
58 | IA-LM | 0.923
59 | LC-2-ad | 0.987
60 | LCLC-97TM1 | 0.991
61 | LCLC-103H | 1.03
62 | LK-2 | 1.08
63 | LOU-NH91 | 0.97
64 | LU99A | 1
65 | NCI-H441 | 0.92
66 | NCI-H522 | 1.11
67 | NCI-H1623 | 0.891
68 | NCI-H1648 | 0.73
69 | NCI-H2342 | 1.07
70 | SW 900 | 1.04

Same assay, conditions: 0.8 µM

Row | Cell Line | relative viability
71 | 201T | 0.986
72 | A549 | 1.05
73 | A-427 | 1.07
74 | ABC-1 | 1.17
75 | BEN | 0.901
76 | CAL-12T | 0.871
77 | COR-L23 | 1.06
78 | COR-L 105 | 0.836
79 | Calu-6 | 1.08
80 | ChaGo-K-1 | 0.917
81 | EBC-1 | 0.937
82 | EKVX | 1.02
83 | EMC-BAC-2 | 0.956
84 | EPLC-272H | 0.885
85 | H3255 | 0.882
86 | HARA | 0.902
87 | HCC-15 | 1.08

Row | Cell Line | relative viability
88 | HCC-78 | 0.848
89 | HCC-366 | 1.07
90 | HCC-827 | 1.01
91 | HOP-62 | 0.952
92 | IA-LM | 0.872
93 | LC-2-ad | 1.03
94 | LCLC-97TM1 | 1.24
95 | LCLC-103H | 1.05
96 | LK-2 | 0.928
97 | LOU-NH91 | 0.939
98 | LU99A | 1
99 | NCI-H441 | 1.2
100 | NCI-H522 | 0.947
101 | NCI-H1623 | 0.88
102 | NCI-H1648 | 0.7
103 | NCI-H2342 | 1.02
104 | SW 900 | 0.759

Same assay, conditions: 2.53 µM

Row | Cell Line | relative viability
105 | 201T | 0.978
106 | A549 | 1.05
107 | A-427 | 1.12
108 | ABC-1 | 0.952
109 | BEN | 0.7
110 | CAL-12T | 0.908
111 | COR-L23 | 1.12
112 | COR-L 105 | 0.853
113 | Calu-6 | 0.96
114 | ChaGo-K-1 | 1.06
115 | EBC-1 | 0.816
116 | EKVX | 1.19
117 | EMC-BAC-2 | 1.01
118 | EPLC-272H | 0.876
119 | H3255 | 0.916
120 | HARA | 1.03
121 | HCC-15 | 1.06
122 | HCC-44 | 1.02

Row | Cell Line | relative viability
123 | HCC-78 | 0.92
124 | HCC-366 | 1
125 | HCC-827 | 1.08
126 | HOP-62 | 1.01
127 | IA-LM | 0.723
128 | LC-2-ad | 0.925
129 | LCLC-97TM1 | 1.09
130 | LCLC-103H | 1.04
131 | LK-2 | 0.67
132 | LOU-NH91 | 1.09
133 | LU99A | 0.973
134 | NCI-H441 | 1.29
135 | NCI-H522 | 1.09
136 | NCI-H1623 | 0.986
137 | NCI-H1648 | 0.829
138 | NCI-H2342 | 1.02
139 | SW 900 | 0.861

Same assay, conditions: 8 µM

Row | Cell Line | relative viability
140 | 201T | 0.757
141 | A549 | 0.995
142 | A-427 | 0.74
143 | ABC-1 | 0.517
144 | BEN | 0.523
145 | CAL-12T | 0.654
146 | COR-L23 | 0.886
147 | COR-L 105 | 0.411
148 | Calu-6 | 0.834
149 | ChaGo-K-1 | 0.959
150 | EBC-1 | 0.386
151 | EKVX | 0.863
152 | EMC-BAC-2 | 0.778
153 | EPLC-272H | 0.608

Source: the supplement of paper PMC10307832
